Tests used:
[1] = Pharmacokinetic evaluation in nude mice; format: in vivo; details: female, mouse, plasma, po, BALB/C nude mice, intragastric administration, 50 mg/kg
Procedure: The drug concentration in the plasma of the test animals (nude mice) at different time points after intragastric administration (i.g.) of compound 18-p1 was determined by using an LC/MS/MS method. The pharmacokinetic behavior of the compound of the present disclosure in nude mice was studied and its pharmacokinetic profile was evaluated.
Nine BALB/C nude mice, female, intragastric administration, purchased from Beijing Vital River Laboratory Animal Technology Co., Ltd., with animal production license number of SCXK (Shanghai) 2017-0005.
An amount of compound 18-p1 was weighed, dissolved in 0.5% by volume of CMCNa, and then prepared into a 2.5 mg/mL clear solution with 99.5% normal saline.
The nude mice were intragastrically administered at a dose of 50.0 mg/kg and a volume of 20.0 mL/kg.
The compound 18-p1 was administered intragastrically to nude mice, and 0.1 mL of blood was collected from the orbit before administration and 0.25 h, 0.5 h, 1.0 h, 2.0 h, 4.0 h, 6.0 h, 8.0 h, 11.0 h and 24.0 h after administration. The blood was placed in an EDTA-K2 anticoagulation tube and centrifuged at 10,000 rpm for 1 min (4° C.), and plasma was separated out within 1 h and then stored at −20° C. for testing. The process from blood sampling to centrifugation was performed under an ice bath.
The content of the test compounds at different concentrations in plasma of nude mice after administration was determined: 25 μL of plasma of nude mice at each time point after administration was taken, and 200 μL of acetonitrile (containing 50 μL of internal standard solution camptothecin, 100 ng/mL) was added; the mixture was vortexed for 5 min, and centrifuged for 10 min (4000 r/min). 0.5 μL of supernatant was taken from the plasma sample for LC/MS/MS analysis.

hERG potassium channel = biological target: T1, hERG potassium channel (Homo sapiens, UniProt Q12809); assay: Manual patch-clamp of hERG potassium currents in CHO cells stably expressing hERG channel; format: cell-based; details: read-out: IC50(μM), blocking effect on the hERG potassium ion channel
T1 construct: host or cells: CHO
T1 sequence (Q12809 whole entry): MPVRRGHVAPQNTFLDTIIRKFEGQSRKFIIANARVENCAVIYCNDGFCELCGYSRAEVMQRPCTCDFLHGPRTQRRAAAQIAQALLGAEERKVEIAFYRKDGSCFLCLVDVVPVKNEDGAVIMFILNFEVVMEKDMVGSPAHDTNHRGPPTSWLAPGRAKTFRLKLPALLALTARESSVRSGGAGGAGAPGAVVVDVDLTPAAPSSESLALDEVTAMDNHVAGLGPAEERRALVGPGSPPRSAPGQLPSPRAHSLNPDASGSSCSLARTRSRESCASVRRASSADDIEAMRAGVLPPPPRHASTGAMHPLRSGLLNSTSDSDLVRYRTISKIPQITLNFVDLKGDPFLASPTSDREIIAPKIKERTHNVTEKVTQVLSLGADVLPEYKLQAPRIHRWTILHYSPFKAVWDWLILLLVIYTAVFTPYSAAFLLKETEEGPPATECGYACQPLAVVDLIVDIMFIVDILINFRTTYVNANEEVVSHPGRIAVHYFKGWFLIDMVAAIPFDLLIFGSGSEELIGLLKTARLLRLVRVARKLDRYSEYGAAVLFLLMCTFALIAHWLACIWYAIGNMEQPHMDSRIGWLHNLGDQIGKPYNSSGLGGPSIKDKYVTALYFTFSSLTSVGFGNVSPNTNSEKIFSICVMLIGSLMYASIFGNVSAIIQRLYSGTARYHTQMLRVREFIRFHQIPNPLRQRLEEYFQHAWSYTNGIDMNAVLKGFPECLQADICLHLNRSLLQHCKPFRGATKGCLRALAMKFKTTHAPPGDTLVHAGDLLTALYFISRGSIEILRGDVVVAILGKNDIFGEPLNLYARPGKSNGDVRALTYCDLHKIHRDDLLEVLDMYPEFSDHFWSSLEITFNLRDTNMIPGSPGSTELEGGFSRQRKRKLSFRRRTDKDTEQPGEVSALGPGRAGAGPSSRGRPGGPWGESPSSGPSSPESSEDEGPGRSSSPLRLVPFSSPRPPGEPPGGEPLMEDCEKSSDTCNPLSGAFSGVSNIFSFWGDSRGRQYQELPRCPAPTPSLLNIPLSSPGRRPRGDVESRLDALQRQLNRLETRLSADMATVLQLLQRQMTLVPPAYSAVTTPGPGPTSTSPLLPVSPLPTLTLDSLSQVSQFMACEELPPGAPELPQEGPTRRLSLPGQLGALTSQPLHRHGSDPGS
Procedure: This example is intended to test the blocking effect of the compounds of the present disclosure on hERG potassium currents in a stable cell strain transfected with an hERG potassium channel by a manual patch-clamp assay.
The cells used in this experiment were from a CHO cell line (provided by Sophion Bioscience, Denmark) transfected with hERG cDNA and stably expressing hERG channel at cell passage number of P5. Cells were cultured in a medium containing the following components (all from Invitrogen): Ham's F12 medium, 10% (v/v) inactivated fetal bovine serum, […] hygromycin B, and […] geneticin. CHO hERG cells were grown in a culture dish containing the above culture medium and cultured in an incubator at 37° C. with 5% CO2. […]
In this experiment, a manual patch-clamp system (HEKA EPC-10 signal amplifier and digital conversion system, purchased from HEKA Electronics, Germany) was used for whole cell current recording. […] After the hERG potassium currents recorded in the above step were stable under the continuous extracellular fluid perfusion in the recording chamber, the drug to be tested could be added for perfusion until the inhibition effect of the drug on the hERG current reached a stable state. […]
The blocking effect of the compound of the present disclosure on hERG potassium currents was determined by the above test.

- Vd/F ([1]; read-out: Apparent distribution volume Vz/F): 16.6 L/kg
- AUC(0-t) ([1]; read-out: Area under curve AUC0-t): 5150 ng·h/mL
- CL/F ([1]; read-out: Clearance CLz/F): 160 mL/min/kg
- half-life ([1]; read-out: Half-life T½ (converted)): 1.2 h
- Cmax ([1]; read-out: Plasma concentration Cmax): 1560 ng/mL
SMILES: Cc1nc(N[C@H](C)c2cccc(C(F)F)c2F)c2cc([C@]3(O)CC[C@@H](O)CC3)c(=O)[nH]c2n1 [Example 18-p1, 4-(((R)-1-(3-(difluoromethyl)-2-fluorophenyl)ethyl)amino)-6-((1s,4S)-1,4-dihydroxycyclohexyl)-2-methylpyrido[2,3-d]pyrimidin-7(8H)-one]
- IC50 (hERG potassium channel): > 30 µM

Reference: US20230219951A1, “PYRIDINE-PYRIMIDINE DERIVATIVE, PREPARATION METHOD THEREFOR AND PHARMACEUTICAL USE THEREOF” (Jiangsu Hengrui Pharmaceuticals Co., Ltd., priority 2020, published 2023)
